# ChEMBL document CHEMBL3046532, “QSAR analysis on PfPK7 inhibitors using HQSAR, CoMFA, and CoMSIA” (Med Chem Res, 2012)
# Target: T1, Putative uncharacterized protein pk7 (Plasmodium falciparum, UniProt O96214)
# T1 sequence (O96214 whole entry): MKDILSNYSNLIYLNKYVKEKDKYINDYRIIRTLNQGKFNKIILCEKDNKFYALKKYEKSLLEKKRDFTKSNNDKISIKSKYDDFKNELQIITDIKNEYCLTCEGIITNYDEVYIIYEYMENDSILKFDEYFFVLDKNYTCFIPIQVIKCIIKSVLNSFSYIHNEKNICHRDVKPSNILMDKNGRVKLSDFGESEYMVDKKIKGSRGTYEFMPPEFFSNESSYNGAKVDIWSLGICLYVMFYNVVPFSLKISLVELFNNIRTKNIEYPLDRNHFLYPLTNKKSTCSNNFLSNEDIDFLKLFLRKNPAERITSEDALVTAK
# Experiment: Inhibition of Plasmodium falciparum protein kinase 7
row,Compound,IC50 [µM]
1,CN(Cc1ccc(F)nc1)c1ccc2ncc(-c3ccc(C#N)cc3)n2n1,1.07
2,CN(Cc1ccc(F)nc1)c1ccc2ncc(-c3ccc(C(N)=O)cc3)n2n1,1.1
3,CN(Cc1ccc(F)nc1)c1ccc2ncc(-c3ccc(CO)cc3)n2n1,21
4,CN(Cc1ccc(F)nc1)c1ccc2ncc(-c3ccc(N)cc3)n2n1,42
5,CN(Cc1ccc(F)nc1)c1ccc2ncc(-c3ccc(CNCO)cc3)n2n1,34
6,CN(Cc1ccc(F)nc1)c1ccc2ncc(-c3ccc(Cn4ccnc4)cc3)n2n1,56
7,CN(Cc1ccc(F)nc1)c1ccc2ncc(-c3ccc(CN4CCC(O)CC4)cc3)n2n1,103
8,N#Cc1ccc(-c2cnc3ccc(N[C@H]4CCCNC4)nn23)cc1,2.1
